#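 Each compound was tested at five concentrations against cells in 96-well plates for 48 hours. The concentration for 50% growth inhibition is given as GI50.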 Calls of active or inactive are those of the source. Cut-off read from the data, not from the text of the source: active = GI50 up to about 1.1 µM and inactive = higher.
# Tests used:
# Test in all cases: NCI tumour cell line growth inhibition, 48 h
# [1] = tested on: Hs-578T
# [2] = tested on: SNB-75
# [3] = tested on: A498
# [4] = tested on: UACC-257
# [5] = tested on: SK-OV-3
# [6] = tested on: MDA-MB-435
# [7] = tested on: SK-MEL-5
# [8] = tested on: HOP-62
# [9] = tested on: SF-539
# [10] = tested on: HCC 2998
# [11] = tested on: ACHN
# [12] = tested on: SK-MEL-28
# [13] = tested on: SF-268
# [14] = tested on: U-251
# [15] = tested on: SW-620
# [16] = tested on: CCRF-CEM
# [17] = tested on: KM12
# [18] = tested on: RPMI-8226
# [19] = tested on: LOX IMVI
# [20] = tested on: Malme-3M
# [21] = tested on: UACC-62
# [22] = tested on: 786-0
# [23] = tested on: SK-MEL-2
# [24] = tested on: CAKI-1
# [25] = tested on: IGROV-1
# [26] = tested on: NCI-H23
# [27] = tested on: BT-549
# [28] = tested on: MOLT-4
# [29] = tested on: SF-295
# [30] = tested on: PC-3
# [31] = tested on: TK-10
# [32] = tested on: HOP-92
# [33] = tested on: NCI/ADR-RES
# [34] = tested on: SN12C
# [35] = tested on: K562
# [36] = tested on: OVCAR-3
# [37] = tested on: DU-145
# [38] = tested on: EKVX
# [39] = tested on: MCF7
# [40] = tested on: NCI-H460
# [41] = tested on: OVCAR-5
# [42] = tested on: NCI-H226
# [43] = tested on: MDA-MB-231
# [44] = tested on: RXF 393
# [45] = tested on: COLO 205
# [46] = tested on: T47D
# [47] = tested on: OVCAR-8
# [48] = tested on: HL-60
# [49] = tested on: HCT-15
# [50] = tested on: HCT-116
# [51] = tested on: UO-31
# [52] = tested on: SR
# [53] = tested on: HT-29
# [54] = tested on: A549
# [55] = tested on: NCI-H522
# [56] = tested on: OVCAR-4
# [57] = tested on: M14
# [58] = tested on: SNB-19
# [59] = tested on: MDA-N
smiles,measurement,setting,value
CN(C)Cc1c(O)ccc2c1c1c(n2C)C(=O)c2ccccc2C1=O,GI50,[1],18.7 µM (inactive)
same,GI50,[2],12.3 µM (inactive)
same,GI50,[3],4.43 µM (inactive)
same,GI50,[4],5.24 µM (inactive)
same,GI50,[5],20.2 µM (inactive)
same,GI50,[6],4.35 µM (inactive)
same,GI50,[7],6.49 µM (inactive)
same,GI50,[8],15.1 µM (inactive)
same,GI50,[9],10.3 µM (inactive)
same,GI50,[10],3.45 µM (inactive)
same,GI50,[11],2.31 µM (inactive)
same,GI50,[12],4.69 µM (inactive)
same,GI50,[13],7.85 µM (inactive)
same,GI50,[14],4.52 µM (inactive)
same,GI50,[15],4.72 µM (inactive)
same,GI50,[16],0.492 µM (active)
same,GI50,[17],3.2 µM (inactive)
same,GI50,[18],2.67 µM (inactive)
same,GI50,[19],1.79 µM (inactive)
same,GI50,[20],3.72 µM (inactive)
same,GI50,[21],3.55 µM (inactive)
same,GI50,[22],7.21 µM (inactive)
same,GI50,[23],5.31 µM (inactive)
same,GI50,[24],4.52 µM (inactive)
same,GI50,[25],3.73 µM (inactive)
same,GI50,[26],5.12 µM (inactive)
same,GI50,[27],11.5 µM (inactive)
same,GI50,[28],0.544 µM (active)
same,GI50,[29],6.17 µM (inactive)
same,GI50,[30],3.9 µM (inactive)
same,GI50,[31],7.41 µM (inactive)
same,GI50,[32],12.6 µM (inactive)
same,GI50,[33],2.73 µM (inactive)
same,GI50,[34],3.62 µM (inactive)
same,GI50,[35],3.12 µM (inactive)
same,GI50,[36],4.75 µM (inactive)
same,GI50,[37],3.75 µM (inactive)
same,GI50,[38],13.5 µM (inactive)
same,GI50,[39],5.86 µM (inactive)
same,GI50,[40],1.85 µM (inactive)
same,GI50,[41],4.16 µM (inactive)
same,GI50,[42],11 µM (inactive)
same,GI50,[43],7.8 µM (inactive)
same,GI50,[44],12.4 µM (inactive)
same,GI50,[45],6.76 µM (inactive)
same,GI50,[46],11.7 µM (inactive)
same,GI50,[47],5.46 µM (inactive)
same,GI50,[48],7.38 µM (inactive)
same,GI50,[49],4.49 µM
same,GI50,[50],9.95 µM (inactive)
same,GI50,[51],4.01 µM (inactive)
same,GI50,[52],1.06 µM (active)
same,GI50,[53],1.4 µM (inactive)
same,GI50,[54],2.51 µM (inactive)
same,GI50,[55],3.95 µM (inactive)
same,GI50,[56],4.28 µM (inactive)
same,GI50,[57],11.2 µM (inactive)
same,GI50,[58],6.19 µM (inactive)
CCOC(=O)c1c(N)sc2c1C(C)(C(=O)OCC)CC2 (stereo not drawn),GI50,[1],78.7 µM (inactive)
same,GI50,[2],88.3 µM (inactive)
same,GI50,[3],18.2 µM (inactive)
same,GI50,[4],> 100 µM (inactive)
same,GI50,[59],> 100 µM (inactive)
same,GI50,[7],> 100 µM (inactive)
same,GI50,[8],> 100 µM (inactive)
same,GI50,[10],> 100 µM (inactive)
same,GI50,[11],> 100 µM (inactive)
same,GI50,[12],> 100 µM (inactive)
same,GI50,[14],> 100 µM (inactive)
same,GI50,[15],> 100 µM (inactive)
same,GI50,[17],> 100 µM (inactive)
same,GI50,[18],78.5 µM (inactive)
same,GI50,[20],> 100 µM (inactive)
same,GI50,[21],> 100 µM (inactive)
same,GI50,[22],> 100 µM (inactive)
same,GI50,[23],> 100 µM (inactive)
same,GI50,[25],> 100 µM (inactive)
same,GI50,[26],> 100 µM (inactive)
same,GI50,[27],> 100 µM (inactive)
same,GI50,[28],74.5 µM (inactive)
same,GI50,[30],> 100 µM (inactive)
same,GI50,[31],> 100 µM (inactive)
same,GI50,[32],58.3 µM (inactive)
same,GI50,[34],> 100 µM (inactive)
same,GI50,[35],> 100 µM (inactive)
same,GI50,[38],38.6 µM (inactive)
same,GI50,[39],> 100 µM (inactive)
same,GI50,[40],69.5 µM (inactive)
same,GI50,[41],> 100 µM (inactive)
same,GI50,[42],> 100 µM (inactive)
same,GI50,[43],> 100 µM (inactive)
same,GI50,[44],> 100 µM (inactive)
same,GI50,[45],> 100 µM (inactive)
same,GI50,[47],> 100 µM (inactive)
same,GI50,[48],96.8 µM (inactive)
same,GI50,[49],> 100 µM
same,GI50,[50],97.5 µM (inactive)
same,GI50,[51],63.8 µM (inactive)
same,GI50,[52],92.7 µM (inactive)
same,GI50,[53],> 100 µM (inactive)
same,GI50,[54],63.1 µM (inactive)
same,GI50,[57],> 100 µM (inactive)
same,GI50,[58],> 100 µM (inactive)
O=C1c2ccccc2CC12CCC1(CC2)OCCO1,GI50,[1],> 100 µM (inactive)
same,GI50,[2],> 100 µM (inactive)
same,GI50,[4],> 100 µM (inactive)
same,GI50,[5],> 100 µM (inactive)
same,GI50,[59],> 100 µM (inactive)
same,GI50,[7],> 10 µM (inactive)
same,GI50,[8],> 100 µM (inactive)
same,GI50,[9],> 100 µM (inactive)
same,GI50,[10],> 100 µM (inactive)
same,GI50,[11],> 100 µM (inactive)
same,GI50,[12],> 100 µM (inactive)
same,GI50,[13],> 100 µM (inactive)
same,GI50,[14],> 100 µM (inactive)
same,GI50,[15],> 100 µM (inactive)
same,GI50,[16],> 100 µM (inactive)
same,GI50,[17],> 100 µM (inactive)
same,GI50,[18],> 100 µM (inactive)
same,GI50,[19],> 100 µM (inactive)
same,GI50,[20],97.9 µM (inactive)
same,GI50,[21],> 100 µM (inactive)
same,GI50,[22],> 100 µM (inactive)
same,GI50,[23],> 100 µM (inactive)
same,GI50,[24],> 100 µM (inactive)
same,GI50,[25],> 100 µM (inactive)
same,GI50,[26],> 100 µM (inactive)
same,GI50,[27],> 100 µM (inactive)
same,GI50,[28],> 100 µM (inactive)
same,GI50,[29],> 100 µM (inactive)
same,GI50,[30],> 100 µM (inactive)
same,GI50,[31],> 100 µM (inactive)
same,GI50,[33],> 100 µM (inactive)
same,GI50,[34],> 100 µM (inactive)
same,GI50,[35],> 100 µM (inactive)
same,GI50,[37],> 100 µM (inactive)
same,GI50,[38],> 100 µM (inactive)
same,GI50,[39],> 100 µM (inactive)
same,GI50,[40],> 100 µM (inactive)
same,GI50,[41],> 100 µM (inactive)
same,GI50,[42],> 100 µM (inactive)
same,GI50,[43],> 100 µM (inactive)
same,GI50,[44],> 100 µM (inactive)
same,GI50,[45],> 100 µM (inactive)
same,GI50,[46],> 100 µM (inactive)
same,GI50,[47],> 100 µM (inactive)
same,GI50,[48],> 100 µM (inactive)
same,GI50,[49],> 100 µM
same,GI50,[50],> 100 µM (inactive)
same,GI50,[51],> 100 µM (inactive)
same,GI50,[52],> 100 µM (inactive)
same,GI50,[53],> 100 µM (inactive)
same,GI50,[54],> 100 µM (inactive)
same,GI50,[55],> 100 µM (inactive)
same,GI50,[56],> 100 µM (inactive)
same,GI50,[57],> 100 µM (inactive)
same,GI50,[58],> 100 µM (inactive)
